Measurements from patent publication US5604219A, “Indolocarbazole derivatives that stimulate platelet production” (Kyowa Hakko Kogyo Co., Ltd., priority 1994, dated 1997).

Columns and labels:
[1] = tested on: bone marrow cells (megakaryocyte colony formation); assay: Megakaryocyte colony formation-stimulating activity (Test Example 1); format: cell-based, BALB/c mouse; conditions: with IL-3 (100 U/ml), 7 days, control (IL-3 alone) defined as 100
Description: An eight-weeks-old BALB/c mouse was killed. Its femurs and cervical vertebrae were taken out, and both end sections thereof were cut off. Bone marrow cells were collected from the pieces cut off from the femurs and cervical vertebrae using a syringe containing IMDM (430-2200EA prepared by Gibco Co.), and then blown into a test tube. The test tube was allowed to stand for 5 minutes, and the supernatant was collected with a piper. To a reaction mixture comprising the bone marrow cells (50,000 cells), bovine serum albumin (2%: A4508 made by Sigma Co.), transferrin (600 μg/ml: 652202 made by Boehringer Mannheim Co.), IL-3 (100 U/ml), cholesterol (16 μg/ml: 036-0641 made by Wako Co.) and agar (0.6%: 0142-02 made by Difco Laboratories) were separately added the test compounds at various concentrations, and 1 ml each of the mixtures was put into a 35-mm dish (Lux Co.), followed by incubation under the conditions of 37° C. 5% CO2 and a humidity of 95% or more for 7 days. Separately, IL-3 alone was added to the bone marrow cells to prepare a control. After the incubation was completed, the agar was dried over a filter paper (1001-055 made by Whatman Co.) and then fixed with 2.5% glutaraldehyde, followed by acetylcholinesterase staining (ACHE staining).
The ACHE staining was carried out by the method described below.
ACHE staining: To each sample was added a solution comprising 0.67 mg/ml acetylthiocholine iodide, 2.94 mg/ml sodium citrate, 7.5 mg/ml copper (II) sulfate and 1.65 mg/ml potassium ferricyanide, and the mixture was allowed to stand at room temperature in the dark for 4-6 hours.
A group of 4 or more megakaryocytes which were stained reddish brown was regarded as a colony, and the number of colonies per dish was calculated using a microscope. The results are shown in Table 2 as relative values to the control.

[2] = tested on: platelets; assay: Platelet production-stimulating activity in mice (Test Example 2); format: in vivo, male BALB/c mice; conditions: intraperitoneal, once a day for 5 days, platelets counted on day 15, A test group, B control group
Source text: A test compound was intraperitoneally administered to four 7-week-old male BALB/c mice per group once a day for consecutive 5 days (day 1 to day 5). A control group (4 mice per group) received only the solvent (5% Tween water). The blood was collected from the fundus oculi vein of each animal on the 15th day from the start of administration (day 15), and the number of the platelets was counted with a microcell counter (Model CC-180A, manufactured by Toa Iryo Denshi Co.). The rate of increase of the number of platelets in the test group (average) over the control (average) was calculated according to the following formula to evaluate the effect of the test compound.
Rate of Increase = A/B × 100
A: the number of platelets in test group
B: the number of platelets in control group

CN[C@@H]1C[C@H]2O[C@@](C)([C@@H]1OC)n1c3ccccc3c3c4c(c5c6ccccc6n2c5c31)C(=O)N(CO)C4 [Compound 1]
Rel. Value (number of megakaryocyte colonies per dish, relative to control) ([1]; Concn. 1 nM): 129

CN[C@@H]1C[C@H]2O[C@@](C)([C@@H]1OC)n1c3ccccc3c3c4c(c5c6cc(C)ccc6n2c5c31)C(=O)N(C)C4 [Compound 8]
Rate of increase (number of platelets, A/B × 100) ([2]; 25 mg/kg): 134% | Rel. Value (number of megakaryocyte colonies per dish, relative to control) ([1]; Concn. 10 nM): 157

CN[C@@H]1C[C@H]2O[C@@](C)([C@@H]1OC)n1c3ccccc3c3c4c(c5c6cc(N)ccc6n2c5c31)C(=O)N(C)C4 [Compound 12]
Rel. Value (number of megakaryocyte colonies per dish, relative to control) ([1]; Concn. 10 nM): 126

CN[C@@H]1C[C@H]2O[C@@](C)([C@@H]1OC)n1c3ccc(N)cc3c3c4c(c5c6cc(N)ccc6n2c5c31)C(=O)N(C)C4 [Compound 16]
Rel. Value (number of megakaryocyte colonies per dish, relative to control) ([1]; Concn. 1 nM): 125

CN[C@@H]1C[C@H]2O[C@@](C)([C@@H]1OC)n1c3ccc(OC(=O)C(C)(C)C)cc3c3c4c(c5c6cc(OC(=O)C(C)(C)C)ccc6n2c5c31)C(=O)N(C)C4 [Compound 22]
Rate of increase (number of platelets, A/B × 100) ([2]; 50 mg/kg): 168%

CN[C@@H]1C[C@H]2O[C@@](C)([C@@H]1OC)n1c3ccccc3c3c4c(c5c6cc(C=NN(C)C)ccc6n2c5c31)C(=O)N(C)C4 [Compound 28]
Rate of increase (number of platelets, A/B × 100) ([2]; 12.5 mg/kg): 156% | Rel. Value (number of megakaryocyte colonies per dish, relative to control) ([1]; Concn. 1 nM): 134

CN[C@@H]1C[C@H]2O[C@@](C)([C@@H]1OC)n1c3ccccc3c3c4c(c5c6cc(CSCCN(C)C)ccc6n2c5c31)C(=O)N(C)C4 [Compound 30]
Rel. Value (number of megakaryocyte colonies per dish, relative to control) ([1]; Concn. 1 nM): 116
